In assay [1] the target is Mitotic checkpoint serine/threonine-protein kinase BUB1 (Homo sapiens) (UniProt O43683). Briefly: Inhibition of BUB1 (unknown origin) assessed as residual activity at 1000 nM by KINOMEscan analysis relative to control.
The test system of assay [2] is Tyrosine-protein kinase ABL1 (Homo sapiens), P00519 [T315I]. Briefly: Inhibition of phosphorylated ABL1 T315I mutant (unknown origin) assessed as residual activity at 1000 nM by KINOMEscan analysis relative to control.
The target in assay [3] is SRSF protein kinase 2 (Homo sapiens) (UniProt P78362). Briefly: Inhibition of SRPK2 (unknown origin) assessed as residual activity at 1000 nM by KINOMEscan analysis relative to control.
The target of assay [4] is Ephrin type-A receptor 5 (Homo sapiens) (UniProt P54756). In words: Inhibition of EPHA5 (unknown origin) assessed as residual activity at 1000 nM by KINOMEscan analysis relative to control.
Sequence of Ephrin type-A receptor 5 (Homo sapiens) (P54756 whole entry): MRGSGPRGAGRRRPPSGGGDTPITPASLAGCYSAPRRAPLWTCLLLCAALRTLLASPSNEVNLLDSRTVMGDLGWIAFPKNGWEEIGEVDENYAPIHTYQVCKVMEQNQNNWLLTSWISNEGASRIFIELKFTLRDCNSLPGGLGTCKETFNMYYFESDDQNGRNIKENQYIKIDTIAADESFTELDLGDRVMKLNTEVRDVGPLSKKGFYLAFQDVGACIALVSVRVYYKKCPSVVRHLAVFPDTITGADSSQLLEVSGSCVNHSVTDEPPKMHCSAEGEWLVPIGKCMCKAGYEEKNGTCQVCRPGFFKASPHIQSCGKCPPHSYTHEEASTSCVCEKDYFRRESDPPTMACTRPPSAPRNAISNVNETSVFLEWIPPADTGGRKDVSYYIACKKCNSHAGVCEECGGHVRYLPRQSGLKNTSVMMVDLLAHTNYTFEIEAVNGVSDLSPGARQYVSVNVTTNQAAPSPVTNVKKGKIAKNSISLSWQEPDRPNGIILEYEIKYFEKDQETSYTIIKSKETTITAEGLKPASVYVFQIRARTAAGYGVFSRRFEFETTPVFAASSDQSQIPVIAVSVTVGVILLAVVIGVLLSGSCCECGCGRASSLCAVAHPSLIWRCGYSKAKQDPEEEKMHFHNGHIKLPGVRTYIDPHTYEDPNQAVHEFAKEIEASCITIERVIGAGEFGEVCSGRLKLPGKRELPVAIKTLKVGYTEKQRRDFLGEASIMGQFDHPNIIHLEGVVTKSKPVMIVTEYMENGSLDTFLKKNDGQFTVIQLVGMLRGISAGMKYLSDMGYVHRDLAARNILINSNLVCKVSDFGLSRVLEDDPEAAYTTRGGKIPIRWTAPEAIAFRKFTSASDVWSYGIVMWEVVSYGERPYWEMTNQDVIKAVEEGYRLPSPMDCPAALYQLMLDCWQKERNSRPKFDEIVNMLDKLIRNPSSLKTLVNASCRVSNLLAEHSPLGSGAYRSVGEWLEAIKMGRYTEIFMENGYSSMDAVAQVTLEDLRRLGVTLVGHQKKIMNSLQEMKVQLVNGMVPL
Assay [5] addresses Cyclin-dependent kinase 14 (Homo sapiens) (UniProt O94921). Briefly: Inhibition of PFTK1 (unknown origin) assessed as residual activity at 1000 nM by KINOMEscan analysis relative to control.
Assay [6] has as its target Myosin light chain kinase 2, skeletal/cardiac muscle (Homo sapiens) (UniProt Q9H1R3). In words: Inhibition of MYLK2 (unknown origin) assessed as residual activity at 1000 nM by KINOMEscan analysis relative to control.
Assay [7] concerns the target Misshapen-like kinase 1 (Homo sapiens) (UniProt Q8N4C8). Briefly: Inhibition of MINK (unknown origin) assessed as residual activity at 1000 nM by KINOMEscan analysis relative to control.
Assay [8] has as its target RAF proto-oncogene serine/threonine-protein kinase (Homo sapiens) (UniProt P04049). Briefly: Inhibition of RAF1 (unknown origin) assessed as residual activity at 1000 nM by KINOMEscan analysis relative to control.
The target in assay [9] is T1, Aurora kinase A (Homo sapiens) (UniProt O14965).
T1 sequence (whole entry): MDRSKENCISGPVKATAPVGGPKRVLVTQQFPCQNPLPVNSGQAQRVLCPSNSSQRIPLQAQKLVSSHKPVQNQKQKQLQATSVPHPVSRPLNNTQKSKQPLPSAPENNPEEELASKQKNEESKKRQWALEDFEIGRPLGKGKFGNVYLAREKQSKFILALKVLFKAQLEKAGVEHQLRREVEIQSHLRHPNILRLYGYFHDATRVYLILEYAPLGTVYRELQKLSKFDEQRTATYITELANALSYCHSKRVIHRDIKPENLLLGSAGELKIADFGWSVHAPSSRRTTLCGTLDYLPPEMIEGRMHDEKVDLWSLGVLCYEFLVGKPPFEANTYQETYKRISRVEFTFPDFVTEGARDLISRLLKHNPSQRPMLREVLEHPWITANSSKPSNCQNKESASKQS
Briefly: Inhibition of AURKA (unknown origin) assessed as residual activity at 1000 nM by KINOMEscan analysis relative to control.

Assay [10] deals with Receptor-interacting serine/threonine-protein kinase 2 (Homo sapiens) (UniProt O43353). Briefly: Inhibition of RIPK2 (unknown origin) assessed as residual activity at 1000 nM by KINOMEscan analysis relative to control.
Sequence of Receptor-interacting serine/threonine-protein kinase 2 (Homo sapiens) (O43353 whole entry): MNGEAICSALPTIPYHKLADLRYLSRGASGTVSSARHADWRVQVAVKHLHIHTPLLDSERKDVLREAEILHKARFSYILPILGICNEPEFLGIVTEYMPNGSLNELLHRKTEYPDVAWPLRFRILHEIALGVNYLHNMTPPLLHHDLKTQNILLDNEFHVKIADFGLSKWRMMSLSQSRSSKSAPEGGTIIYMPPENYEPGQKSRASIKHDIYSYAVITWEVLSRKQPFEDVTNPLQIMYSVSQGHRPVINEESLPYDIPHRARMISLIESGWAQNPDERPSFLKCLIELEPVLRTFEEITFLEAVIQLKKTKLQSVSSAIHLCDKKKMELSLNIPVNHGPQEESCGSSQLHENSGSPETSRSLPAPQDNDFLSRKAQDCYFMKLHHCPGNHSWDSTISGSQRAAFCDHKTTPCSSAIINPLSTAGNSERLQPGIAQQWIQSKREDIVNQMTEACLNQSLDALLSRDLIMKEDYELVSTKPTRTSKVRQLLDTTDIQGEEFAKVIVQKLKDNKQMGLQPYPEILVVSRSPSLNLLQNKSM
The target of assay [11] is Cyclin-dependent kinase 8 (Homo sapiens) (UniProt P49336). Briefly: Inhibition of CDK8 (unknown origin) assessed as residual activity at 1000 nM by KINOMEscan analysis relative to control.
Assay [12] has as its system Epidermal growth factor receptor (Homo sapiens), P00533 [G719C]. Briefly: Inhibition of EGFR G719C mutant (unknown origin) assessed as residual activity at 1000 nM by KINOMEscan analysis relative to control.
Assay [13] has as its target Casein kinase II subunit alpha' (Homo sapiens) (UniProt P19784). Briefly: Inhibition of CSNK2A2 (unknown origin) assessed as residual activity at 1000 nM by KINOMEscan analysis relative to control.
The target of assay [14] is T2, Calcium/calmodulin-dependent protein kinase type IV (Homo sapiens) (UniProt Q16566).
T2 sequence (whole entry): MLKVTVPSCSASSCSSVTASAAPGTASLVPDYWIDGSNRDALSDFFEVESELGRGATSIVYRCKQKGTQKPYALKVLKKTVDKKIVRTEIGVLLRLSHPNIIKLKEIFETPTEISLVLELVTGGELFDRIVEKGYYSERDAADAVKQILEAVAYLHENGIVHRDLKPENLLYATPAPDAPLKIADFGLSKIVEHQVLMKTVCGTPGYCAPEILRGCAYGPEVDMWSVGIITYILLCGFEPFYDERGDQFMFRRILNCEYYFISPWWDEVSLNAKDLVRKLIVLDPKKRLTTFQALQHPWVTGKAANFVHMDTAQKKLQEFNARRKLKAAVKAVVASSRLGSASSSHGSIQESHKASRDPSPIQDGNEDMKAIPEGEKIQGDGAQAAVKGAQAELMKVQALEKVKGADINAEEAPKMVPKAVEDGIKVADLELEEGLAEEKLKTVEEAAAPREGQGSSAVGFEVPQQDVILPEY
In words: Inhibition of CAMK4 (unknown origin) assessed as residual activity at 1000 nM by KINOMEscan analysis relative to control.

Assay [15] deals with Tyrosine-protein kinase ABL1 (Homo sapiens), P00519 [F317I]. In words: Inhibition of nonphosphorylated ABL1 F317I mutant (unknown origin) assessed as residual activity at 1000 nM by KINOMEscan analysis relative to control.
Assay [16] deals with Focal adhesion kinase 1 (Homo sapiens) (UniProt Q05397). Briefly: Inhibition of FAK (unknown origin) assessed as residual activity at 1000 nM by KINOMEscan analysis relative to control.
Assay [17] concerns the target Serine/threonine-protein kinase 38 (Homo sapiens) (UniProt Q15208). Briefly: Inhibition of NDR1 (unknown origin) assessed as residual activity at 1000 nM by KINOMEscan analysis relative to control.
Assay [18] concerns the target Epidermal growth factor receptor (Homo sapiens, UniProt P00533). In words: Inhibition of EGFR (unknown origin) assessed as residual activity at 1000 nM by KINOMEscan analysis relative to control.

Sequence of Cyclin-dependent kinase 14 (Homo sapiens) (O94921 whole entry): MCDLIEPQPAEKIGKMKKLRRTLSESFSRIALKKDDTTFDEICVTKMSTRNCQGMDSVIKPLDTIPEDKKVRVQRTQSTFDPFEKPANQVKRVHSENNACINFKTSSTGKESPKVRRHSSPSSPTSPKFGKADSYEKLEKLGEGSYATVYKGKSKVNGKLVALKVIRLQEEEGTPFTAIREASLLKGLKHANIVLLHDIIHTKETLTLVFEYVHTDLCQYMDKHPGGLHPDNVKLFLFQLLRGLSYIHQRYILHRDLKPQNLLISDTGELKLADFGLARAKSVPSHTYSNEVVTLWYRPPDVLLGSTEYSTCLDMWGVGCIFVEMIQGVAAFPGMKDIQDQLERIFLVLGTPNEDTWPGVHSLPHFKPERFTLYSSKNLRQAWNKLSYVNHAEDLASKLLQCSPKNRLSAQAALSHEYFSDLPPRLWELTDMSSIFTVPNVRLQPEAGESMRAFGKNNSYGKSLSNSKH
Sequence of Misshapen-like kinase 1 (Homo sapiens) (Q8N4C8 whole entry, looked up): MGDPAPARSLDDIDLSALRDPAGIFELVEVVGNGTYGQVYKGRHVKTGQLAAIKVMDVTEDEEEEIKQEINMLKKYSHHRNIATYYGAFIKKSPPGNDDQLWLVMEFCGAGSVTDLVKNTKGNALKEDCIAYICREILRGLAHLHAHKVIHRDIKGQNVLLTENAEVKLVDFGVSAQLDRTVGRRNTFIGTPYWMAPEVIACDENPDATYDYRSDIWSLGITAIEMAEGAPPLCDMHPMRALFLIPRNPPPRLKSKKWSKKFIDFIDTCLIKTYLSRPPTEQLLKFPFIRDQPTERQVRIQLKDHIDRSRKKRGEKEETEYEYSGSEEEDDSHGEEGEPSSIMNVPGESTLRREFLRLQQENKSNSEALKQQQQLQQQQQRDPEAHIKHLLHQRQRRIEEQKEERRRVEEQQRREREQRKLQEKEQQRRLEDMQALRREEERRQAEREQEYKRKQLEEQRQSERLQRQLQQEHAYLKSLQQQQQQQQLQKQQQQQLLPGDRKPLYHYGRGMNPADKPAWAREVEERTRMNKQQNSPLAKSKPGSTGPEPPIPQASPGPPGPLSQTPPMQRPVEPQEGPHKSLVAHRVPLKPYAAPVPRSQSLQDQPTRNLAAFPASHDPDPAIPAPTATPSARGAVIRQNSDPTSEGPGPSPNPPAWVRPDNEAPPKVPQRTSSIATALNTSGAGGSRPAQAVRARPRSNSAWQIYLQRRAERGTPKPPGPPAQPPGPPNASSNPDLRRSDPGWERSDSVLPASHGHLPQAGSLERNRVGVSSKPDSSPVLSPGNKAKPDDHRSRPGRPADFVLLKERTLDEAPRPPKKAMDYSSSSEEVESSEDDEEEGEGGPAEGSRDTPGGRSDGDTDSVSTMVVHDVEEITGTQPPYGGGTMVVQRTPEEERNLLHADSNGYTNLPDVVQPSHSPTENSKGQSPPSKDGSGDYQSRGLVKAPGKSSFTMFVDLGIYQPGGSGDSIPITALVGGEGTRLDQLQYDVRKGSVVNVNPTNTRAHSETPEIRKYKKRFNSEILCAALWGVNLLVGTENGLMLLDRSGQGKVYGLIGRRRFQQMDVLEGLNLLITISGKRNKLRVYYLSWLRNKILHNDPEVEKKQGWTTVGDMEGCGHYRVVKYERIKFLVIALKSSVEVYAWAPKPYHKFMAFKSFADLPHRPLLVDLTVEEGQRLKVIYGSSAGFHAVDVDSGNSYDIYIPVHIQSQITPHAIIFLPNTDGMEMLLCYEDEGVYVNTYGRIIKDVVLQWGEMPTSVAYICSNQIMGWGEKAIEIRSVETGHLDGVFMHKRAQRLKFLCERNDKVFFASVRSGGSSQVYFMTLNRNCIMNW
Sequence of Myosin light chain kinase 2, skeletal/cardiac muscle (Homo sapiens) (Q9H1R3 whole entry): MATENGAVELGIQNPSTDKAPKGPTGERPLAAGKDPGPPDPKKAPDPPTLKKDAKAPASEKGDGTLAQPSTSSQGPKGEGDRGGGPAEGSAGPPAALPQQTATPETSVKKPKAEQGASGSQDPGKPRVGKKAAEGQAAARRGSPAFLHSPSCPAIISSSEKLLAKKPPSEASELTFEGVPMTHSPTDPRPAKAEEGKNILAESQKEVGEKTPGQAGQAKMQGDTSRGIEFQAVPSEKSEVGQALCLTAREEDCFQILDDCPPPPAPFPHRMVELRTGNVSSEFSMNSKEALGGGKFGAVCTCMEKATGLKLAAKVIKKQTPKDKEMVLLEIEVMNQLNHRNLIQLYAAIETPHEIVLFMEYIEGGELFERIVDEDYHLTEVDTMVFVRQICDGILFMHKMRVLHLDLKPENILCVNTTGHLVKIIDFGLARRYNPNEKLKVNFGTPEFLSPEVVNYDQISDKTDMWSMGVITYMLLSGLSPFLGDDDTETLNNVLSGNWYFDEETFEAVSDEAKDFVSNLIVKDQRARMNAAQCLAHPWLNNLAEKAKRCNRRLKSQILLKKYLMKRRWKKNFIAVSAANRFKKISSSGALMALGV
Sequence of RAF proto-oncogene serine/threonine-protein kinase (Homo sapiens) (P04049 whole entry): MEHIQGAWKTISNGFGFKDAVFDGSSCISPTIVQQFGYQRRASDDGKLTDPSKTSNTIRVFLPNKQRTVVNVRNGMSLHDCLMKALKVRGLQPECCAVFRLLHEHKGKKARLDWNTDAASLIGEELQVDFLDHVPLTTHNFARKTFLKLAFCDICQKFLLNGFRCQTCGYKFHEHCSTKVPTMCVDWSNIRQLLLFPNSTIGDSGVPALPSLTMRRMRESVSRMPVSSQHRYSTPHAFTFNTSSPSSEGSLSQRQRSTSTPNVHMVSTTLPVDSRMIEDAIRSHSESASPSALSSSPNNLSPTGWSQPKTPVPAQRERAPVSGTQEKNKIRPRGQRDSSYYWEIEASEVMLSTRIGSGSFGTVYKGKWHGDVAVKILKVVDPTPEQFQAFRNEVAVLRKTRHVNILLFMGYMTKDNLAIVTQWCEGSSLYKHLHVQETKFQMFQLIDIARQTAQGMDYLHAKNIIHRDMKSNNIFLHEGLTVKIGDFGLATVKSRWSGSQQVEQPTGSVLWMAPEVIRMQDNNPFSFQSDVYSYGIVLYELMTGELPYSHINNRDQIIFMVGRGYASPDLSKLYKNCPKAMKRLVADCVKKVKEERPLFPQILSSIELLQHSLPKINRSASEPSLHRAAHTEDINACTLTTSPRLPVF
Sequence of Casein kinase II subunit alpha' (Homo sapiens) (P19784 whole entry, looked up): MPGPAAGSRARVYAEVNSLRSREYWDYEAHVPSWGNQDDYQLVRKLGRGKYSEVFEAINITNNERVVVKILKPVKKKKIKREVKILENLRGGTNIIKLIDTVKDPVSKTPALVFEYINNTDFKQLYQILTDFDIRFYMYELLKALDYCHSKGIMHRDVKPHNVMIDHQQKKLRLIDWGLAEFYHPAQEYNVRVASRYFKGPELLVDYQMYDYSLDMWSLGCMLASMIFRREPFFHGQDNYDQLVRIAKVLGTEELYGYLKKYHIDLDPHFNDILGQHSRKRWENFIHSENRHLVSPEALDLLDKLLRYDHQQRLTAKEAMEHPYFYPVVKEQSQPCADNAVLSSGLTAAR

On to `COc1cc2nc(C)nc(N[C@H](C)c3cccc(-c4cn[nH]c4)c3)c2cc1OC`, for which the Activity in [1] came out at 100%; in [2] it was 99%; in assay [3] it was 94%; in assay [4], 94%; in assay [5] it was 93%; in assay [6], 73%. Also, the Activity stood at 100% in [7]; 100% in assay [8]; 89% in assay [9]; 73% in [10]; 91% in assay [11]; 77% in [12]. The Activity stood at 100% in [13]; 92% in assay [14]; 84% in assay [15]; 95% in assay [16]; 64% in assay [17]; 88% in [18].
Turning to `COc1cc2ncnc(N[C@H](C)c3cccc4ccccc34)c2cc1OC`, the Activity in assay [1] was determined as 100%; in [2], 96%; in assay [3] it was 93%; in assay [4] it was 100%; in assay [5] it was 100%; in assay [6] it was 100%. For the same molecule, the Activity in [7] is 74%; in assay [8], 94%; in [9], 91%; in [10], 99%; in [11] it was 93%; in assay [12], 1.6%. Moreover, the Activity came out at 90% in assay [13]; 100% in assay [14]; 86% in assay [15]; 100% in assay [16]; 79% in [17]; 3.2% in [18].
